The values below are quoted from earlier work in publication PMC9026741 (Bioorganic chemistry, 2020).

The data set addresses T1, Nrp1 (Homo sapiens, UniProt O14786).
T1 sequence (O14786 274-586): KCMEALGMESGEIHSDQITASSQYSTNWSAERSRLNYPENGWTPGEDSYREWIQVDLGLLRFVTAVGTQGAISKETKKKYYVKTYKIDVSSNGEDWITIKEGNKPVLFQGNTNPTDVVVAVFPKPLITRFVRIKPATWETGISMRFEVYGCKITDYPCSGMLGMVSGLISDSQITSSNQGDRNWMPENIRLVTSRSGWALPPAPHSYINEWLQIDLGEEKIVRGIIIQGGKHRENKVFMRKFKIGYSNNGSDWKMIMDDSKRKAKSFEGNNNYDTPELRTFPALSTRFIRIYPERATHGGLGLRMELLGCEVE
The following applies: Nrp1 over Nrp2.

With ATWLPPR, the “preference for Nrp1” value is recorded as “two-fold preference for Nrp1”.
